According to patent US20080039481A1, “Seed Dressing for Soya Bean” (BAYER CROPSCIENCE AG, priority 2004, published 2008):

Assays:
Phakopsora Pachyrhizi [1] = assay: Seed dressing field trial, action of fluquinconazole against soya bean rust; type: in vivo; conditions: natural infection (control 75%)
Protocol: Action of Fluquinconazole against Phakopsora Pachyrhizi Seed Dressing: Fluquinconazole 25 WPC (Wettable Powder) For dressing, the seed was shaken for 1 minute with the seed dressing in a closed plastic bag. The seed was sown in a field (4 plots, plot size in each case 10 m^2, 40 seeds per m^2) and, one day after sowing, artificially irrigated. The natural degree of infection in the control was, on average, 75%. The efficacy is expressed in percent. 0% means an efficacy which corresponds with that of the control, whereas an efficacy of 100% means that no infection is observed.

Phakopsora Pachyrhizi [2] = assay: Seed dressing field trial, action of prothioconazole against soya bean rust; type: in vivo; conditions: duration 28 days, natural infection (control 75%)
Protocol: Action of Prothioconazole against Phakopsora Pachyrhizi
Seed Dressing: Prothioconazole
For dressing, the seed was shaken for 1 minute with the seed dressing in a closed plastic bag.
The seed was sown in a field (4 plots, plot size in each case 10 m^2, 40 seeds per m^2) and, one day after sowing, artificially irrigated.
The natural degree of infection in the control was, on average, 75%.
The efficacy is expressed in percent. 0% means an efficacy which corresponds with that of the control, whereas an efficacy of 100% means that no infection is observed.

Measured: Efficacy

O=c1c2cc(F)ccc2nc(-n2cncn2)n1-c1ccc(Cl)cc1Cl [fluquinconazole]
100%: Phakopsora Pachyrhizi [1]; 5 g of fluquinconazole/100 kg of seed, duration 28 days | Phakopsora Pachyrhizi [1]; 50 g of fluquinconazole/100 kg of seed, duration 22 days | Phakopsora Pachyrhizi [1]; 50 g of fluquinconazole/100 kg of seed, duration 33 days | Phakopsora Pachyrhizi [1]; 50 g of fluquinconazole/100 kg of seed, duration 37 days

OC(Cc1ccccc1Cl)(Cn1nc[nH]c1=S)C1(Cl)CC1 (stereo not drawn) [prothioconazole]
100%: Phakopsora Pachyrhizi [2]; 5 g of prothioconazole/100 kg of seed | Phakopsora Pachyrhizi [2]; 10 g of prothioconazole/100 kg of seed
